The values below come from PubChem BioAssay (NCI).

Some test systems named below: HT29 colon; PC-3 prostate; SF-268 CNS; TK-10 renal; COLO 205 colon; RPMI-8226 leukemia; T-47D breast; MALME-3M melanoma; NCI/ADR-RES ovarian; HS 578T breast; HOP-62 NSCLC.
Assay in all cases: NCI anticancer screen, dose series, 48 h

“And” between values parts separate entries of the source, which are not always exact repeats. Equal values may be shown once.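 Results reflect a 48-hour exposure of cells in 96-well plates to compound at five concentrations. The concentration for 50% growth inhibition is given as GI50. TGI denotes the concentration required for complete inhibition of growth.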

Regarding `Cc1c2c(n3c(nc4ccccc43)c1C#N)NCC2`, the TGI in the assay on HT29 colon, in the assay on PC-3 prostate, in the assay with SF-268 CNS, in the assay on TK-10 renal, with COLO 205 colon and in the assay on RPMI-8226 leukemia was over 10 µM throughout. The TGI in the assay on T-47D breast, in the assay with MALME-3M melanoma, with NCI/ADR-RES ovarian, in the assay on HS 578T breast and in the assay on HOP-62 NSCLC was over 10 µM in each case.

Regarding `O=C(Cn1c2ccc(Br)cc2c2nc3ccccc3nc21)N1CCOCC1`, the TGI in the assay with HT29 colon, in the assay with PC-3 prostate, in the assay with SF-268 CNS, in the assay on TK-10 renal, with COLO 205 colon and in the assay with RPMI-8226 leukemia was over 100 µM each time. For the same compound, the TGI with T-47D breast, in the assay with MALME-3M melanoma, in the assay on NCI/ADR-RES ovarian, in the assay with HS 578T breast and in the assay on HOP-62 NSCLC was over 100 µM throughout.

In the case of `O=c1[nH]c(Br)nc2n[nH]nc12`, the TGI with HT29 colon, in the assay with PC-3 prostate, in the assay on SF-268 CNS, in the assay with TK-10 renal, in the assay with COLO 205 colon and in the assay on RPMI-8226 leukemia was over 100 µM each time. Besides, the TGI in the assay with T-47D breast is over 100 µM; in the assay on MALME-3M melanoma, over 100 µM; in the assay on NCI/ADR-RES ovarian, over 100 µM; with HS 578T breast it was over 100 µM; in the assay with HOP-62 NSCLC it was 94.8 µM.

`CCOC(=O)c1cc(C2CCN(Cc3ccccc3)C2=O)c(C(=O)/C=C(/C)N)[nH]1` (centres undefined): the TGI in the assay with HT29 colon, in the assay on PC-3 prostate, with SF-268 CNS, with TK-10 renal, with COLO 205 colon and with RPMI-8226 leukemia was over 100 µM throughout. Also, the TGI in the assay on T-47D breast, in the assay on MALME-3M melanoma, in the assay on NCI/ADR-RES ovarian, with HS 578T breast and in the assay on HOP-62 NSCLC was over 100 µM throughout.

As to `O=C(/C=C/c1ccc(O)c(O)c1)c1ccc(O)cc1O`, the TGI in the assay with HT29 colon is 33.4 µM; in the assay with PC-3 prostate, 52.6 µM; in the assay with SF-268 CNS, 37.6 µM; with TK-10 renal, 60.3 µM; in the assay with COLO 205 colon, 31 µM; with RPMI-8226 leukemia it was 55.2 µM. Besides, the TGI in the assay with T-47D breast is 20 µM; in the assay on MALME-3M melanoma, 28.7 µM; in the assay with NCI/ADR-RES ovarian, over 84.1 µM; with HS 578T breast, 78.8 µM; in the assay on HOP-62 NSCLC, 42.4 µM.

With `O=C(O)CCC1(CCC(=O)O)CCCCCCCCC(CCC(=O)O)(CCC(=O)O)C(=O)C1=O`, the TGI in the assay with HT29 colon, with PC-3 prostate, in the assay with SF-268 CNS, in the assay on TK-10 renal, in the assay on COLO 205 colon and with RPMI-8226 leukemia was over 100 µM in each case. Besides, the TGI in the assay on T-47D breast, in the assay with MALME-3M melanoma, with NCI/ADR-RES ovarian, in the assay on HS 578T breast and in the assay with HOP-62 NSCLC was over 100 µM in each case.

As to `NCCNc1ccc(NCCN)c2c1C(=O)c1c(O)ccc(O)c1C2=O`, the GI50 was 92.2 nM with HT29 colon; 22.2 nM with SF-268 CNS; 289 nM in the assay on TK-10 renal; 157 nM in the assay with COLO 205 colon; 112 nM in the assay with MALME-3M melanoma; 237 nM with NCI/ADR-RES ovarian. For the same compound, the GI50 in the assay with HS 578T breast was 225 nM; with HOP-62 NSCLC, 18.9 nM. Further, the TGI in the assay on HT29 colon is 1.34 µM and 1.23 µM; with PC-3 prostate, 1.64 µM; in the assay on SF-268 CNS, 0.985 µM and 3.24 µM; with TK-10 renal, 3.64 µM and 1.4 µM; with COLO 205 colon, 2.36 µM and 1.19 µM; with RPMI-8226 leukemia it was 0.692 µM. For the same compound, the TGI with T-47D breast is 2.66 µM and 4.38 µM; in the assay with MALME-3M melanoma, 1.46 µM and 1.34 µM; in the assay on NCI/ADR-RES ovarian it was 1.39 µM and 2.84 µM; in the assay on HS 578T breast it was 0.851 µM and 0.902 µM; in the assay on HOP-62 NSCLC it was 0.147 µM and 0.0642 µM.

On to `COC(=O)CCc1cc(OC)c2oc(-c3ccc(OC)c(OC)c3)c(CO)c2c1`, for which the TGI in the assay with HT29 colon, with PC-3 prostate, in the assay with SF-268 CNS, with TK-10 renal, in the assay with COLO 205 colon and in the assay with RPMI-8226 leukemia was over 100 µM each time. Moreover, the TGI in the assay on T-47D breast, in the assay on MALME-3M melanoma, in the assay on NCI/ADR-RES ovarian, with HS 578T breast and with HOP-62 NSCLC was over 100 µM throughout.

As to `O=C(N/N=C\c1ccc(Cl)cc1)Nc1cccc2ccccc12`, the TGI in the assay on HT29 colon was over 100 µM; in the assay on PC-3 prostate, over 100 µM; with SF-268 CNS, over 26.1 µM; with TK-10 renal, 17 µM; in the assay with COLO 205 colon, over 100 µM; in the assay on RPMI-8226 leukemia, over 100 µM. The TGI in the assay with T-47D breast is over 100 µM; with MALME-3M melanoma, over 24.4 µM; in the assay with NCI/ADR-RES ovarian it was over 100 µM; in the assay with HS 578T breast, 12 µM; in the assay with HOP-62 NSCLC it was 5.25 µM.

As for `CCOC(=O)C12CCC(c3c(C)cccc3C)(O1)C(C(=O)OC)=C2C(=O)OC` (centres undefined), the TGI in the assay on HT29 colon was 4.72 µM; in the assay with PC-3 prostate, over 10 µM; in the assay with SF-268 CNS it was over 10 µM; in the assay on TK-10 renal, over 10 µM; in the assay on COLO 205 colon, 5.08 µM; with RPMI-8226 leukemia it was over 10 µM. Moreover, the TGI was over 10 µM in the assay with T-47D breast; 6.4 µM with MALME-3M melanoma; over 10 µM with NCI/ADR-RES ovarian; over 9.49 µM in the assay with HS 578T breast; over 10 µM in the assay on HOP-62 NSCLC.

Take `Cc1cnc2c(c1)C(=O)N(c1ccc(Br)cc1)S2(=O)=O`: the TGI in the assay on HT29 colon, in the assay with PC-3 prostate, with SF-268 CNS, in the assay on TK-10 renal, with COLO 205 colon and in the assay with RPMI-8226 leukemia was over 100 µM throughout. For the same compound, the TGI with T-47D breast, in the assay with MALME-3M melanoma, with NCI/ADR-RES ovarian, in the assay with HS 578T breast and in the assay with HOP-62 NSCLC was over 100 µM throughout.

Regarding `O=C(O)c1ccc(Nc2nc3ccc(C(F)(F)F)cc3nc2-c2ccccc2)cc1`, the TGI with HT29 colon was over 10 µM; with PC-3 prostate, over 100 µM; with SF-268 CNS, over 100 µM; in the assay with TK-10 renal, 52.4 µM; with RPMI-8226 leukemia, over 100 µM; with T-47D breast, 52.8 µM. Also, the TGI was over 100 µM in the assay with MALME-3M melanoma, 96.2 µM with NCI/ADR-RES ovarian, over 100 µM in the assay on HS 578T breast and over 100 µM in the assay with HOP-62 NSCLC.
